# Test results reported in US4853401A, “Spiro-hydantoins as aldose reductase inhibitors” (priority 1987, dated 1989).
# Legend:
# [1] = Acute oral toxicity (LD50); type: in vivo; settings: mouse, in vivo, mice, read-out: Lethal dose LD50
# Protocol: The LD 50 was calculated by the method of Litchfield and Wilcoxon (J. Pharmacol. Exp. Ther., 96, 99, 1949) and is expressed in mg/kg. The products were orally administered to mice.
# (§1) Behaviour was studied, 2, 4, 6 and 24 hours after treatment. Observation was continued if symptoms persisted at that time. Deaths were recorded during the 14 days after treatment. The results are given in Table II, in which the numbers of the compounds are the same as the numbers given in column 1 of Table I.
# mice = assay: Effect on behaviour (Irwin method), side effects; type: in vivo
# Protocol: The effect on behaviour was studied by a method derived from that of S. Irwin (Gordon Res. Conf. on Medicinal Chem., 133, 1959). The substances, suspended in 1% tragacanth mucilage, were orally administered via an intra-gastric probe to groups of 5 male mice fasted for 18 hours. The maximum tested dose was 3 000 mg/kg or 1 000 mg/kg, and smaller doses were tested if an effect has been observed.
# as §1
# [2] = tested on: sorbitol accumulation in crystalline lenses; assay: Effect of in vivo doses on sorbitol accumulation in crystalline lenses of diabetic rats; set-up: species or system Sprague Dawley rats
# Source text: (§2) 2.2 Effect of "in vivo" doses on sorbitol accumulation in sciatic nerves and crystalline lenses of diabetic rats:
# (§3) Estimates were made of the effects of the products on the proportion of plasma glucose and the sorbitol content of the crystalline lenses and sciatic nerves of rats.
# [3] = tested on: sorbitol accumulation in sciatic nerves; assay: Effect of in vivo doses on sorbitol accumulation in sciatic nerves of diabetic rats; set-up: species or system Sprague Dawley rats
# Source text: as §2, §3
# [4] = Effect of in vivo doses on plasma glucose of diabetic rats; set-up: species or system Sprague Dawley rats; settings: n = 5, average ± standard deviation
# Protocol: Compound No. 1 (CP 3182 AR) and No. 2 (CP 3192 AR) were evaluated at various doses, using the experimental model described hereinbefore (.sctn.2.1).
# In the case of each product, 25 Sprague Dawley rats fasted the previous day were made diabetic by an intraperitoneal injection of streptozotocin (75 mg/kg). The rats were divided into 5 groups of 5, each orally given 0.3, […] or 10 mg/kg of CP 3182 AR or a control.
# An identical experiment was performed with CP 3192 AR at the same doses. Treatment was given immediately after the streptozotocin, and 7 and 24 hours later. The animals were sacrificed 27 hours after induction. Estimates were made of the effects of the products on the proportion of plasma glucose and the sorbitol content of the crystalline lenses and sciatic nerves of rats.
# [5] = tested on: accumulation of sorbitol in the crystalline lenses; assay: Preventive effect of single dose: sorbitol in crystalline lenses; type: in vivo, Sprague Dawley rats; settings: for Accumulation of sorbitol in crystalline lenses, treated: 10 mg/kg oral
# Protocol: 2.3. In vivo effects of a single dose of compound No. 2 (CP 3192 AR) on the variation in the proportion of plasma glucose and the accumulation of sorbitol in the crystalline lenses and sciatic nerves of diabetic rats.
# 2.3.1. Preventive effect. CP 3192 AR was administered simultaneously with the induction of diabetes. The experiment was performed on 33 male Sprague Dawley rats weighing about 200 g.
# At time 0 hours, 3 rats were sacrificed and used as non-diabetic controls. 30 fats fasted the previous day were made diabetic by an intraperitoneal injection of streptozotocin (75 mg/kg). A dose of 10 mg/kg of CP 3192 AR was simultaneously administered orally to 15 of the rats. The other 15 were given a placebo. 3 control rats and 3 rats treated with CP 3192 AR were sacrificed 2, 4, 8, 24 and 48 hours after induction of diabetes.
# An estimate was made of the effects of the product on the proportion of plasma glucose and the sorbitol content of the crystalline lenses and sciatic nerves.
# [6] = tested on: accumulation of sorbitol in the crystalline lenses; assay: Curative effect of single dose: sorbitol in crystalline lenses; type: in vivo, Sprague Dawley rats; settings: for Accumulation of sorbitol in crystalline lenses, treated: 10 mg/kg oral
# Protocol: (§4) 2.3.2. Curative effect: CP 3192 AR was administered 24 hours after induction of diabetes.
# (§5) As before, the experiment was made on 33 male Sprague Dawley rats weighing about 200 g. The 33 rats, which had been fasted the previous day, were made diabetic by an intraperitoneal injection of streptozotocin (75 mg/kg).
# (§6) 24 hours after induction of diabetes, 3 rats were sacrificed and used as diabetic controls. A dose of 10 mg/kg of CP 3192 AR was orally administered to 15 rats whereas the other 15 were given the excipient without an active product. 3 control rats and 3 rats treated with CP 3192 AR were sacrificed 2, 4, 8, 24 and 48 hours after administration of the product.
# (§7) Estimates were made of the effects of the product on the proportion of plasma glucose and the sorbitol content of the crystalline lenses and sciatic nerves of rats made diabetic by streptozotocin.
# [7] = tested on: accumulation of sorbitol in the sciatic nerves; assay: Curative effect of single dose: sorbitol in sciatic nerves; type: in vivo, Sprague Dawley rats; settings: for Accumulation of sorbitol in sciatic nerves, treated: 10 mg/kg oral
# Protocol: as §4, §5, §6, §7
# [8] = Curative effect of single dose: plasma glucose; type: in vivo, Sprague Dawley rats; settings: for Plasma glucose, treated: 10 mg/kg oral 24 h after diabetes induction
# Protocol: as §4, §5, §6, §7
# [9] = single dose 10 mg/kg, lenses and sciatic nerves
structure (smiles),measurement,setting,value
"CC(=O)OCN1C(=O)N(COC(C)=O)C2(C1=O)c1ccccc1-c1ccccc12 [Compound 2, bis-(1',3'-acetoxymethyl)-spiro-/fluorene-9,4'-imidazolidine/-2',5'-dione]",LD50 at 336 h,[1],> 3000 mg/kg
same,side effect observed,mice; dose of 3000 mg/kg,no side effect was observed
same,MED (minimum dose at which a side effect is observed),"mice; mice, oral",> 3 000 mg/kg
same,mutagenic effect,Ames test,does not have a mutagenic effect
same,"% inhibition of sorbitol accumulation, Crystalline lenses","[2]; 0.3 mg/kg oral at 0, 7, 24 h",3 ± 25%
same,"% inhibition of sorbitol accumulation, Crystalline lenses","[2]; 1 mg/kg oral at 0, 7, 24 h",13%
same,"% inhibition of sorbitol accumulation, Crystalline lenses","[2]; 3 mg/kg oral at 0, 7, 24 h",46%
same,"% inhibition of sorbitol accumulation, Crystalline lenses","[2]; 10 mg/kg oral at 0, 7, 24 h",66%
same,ED50,"[2]; Rattus norvegicus, 27 h, crystalline lenses, diabetic rats, oral, read-out: ED50 (dose at which measured inhibition of aldose reductase activity is 50%)",3 mg/kg
same,"therapeutic index MED/ED50, crystalline lenses",[2]; crystalline lenses,about 1 000
same,"% inhibition of sorbitol accumulation, Sciatic nerves","[3]; 0.3 mg/kg oral at 0, 7, 24 h",42 ± 9%
same,"% inhibition of sorbitol accumulation, Sciatic nerves","[3]; 1 mg/kg oral at 0, 7, 24 h",40 ± 17%
same,"% inhibition of sorbitol accumulation, Sciatic nerves","[3]; 3 mg/kg oral at 0, 7, 24 h",68 ± 11%
same,"% inhibition of sorbitol accumulation, Sciatic nerves","[3]; 10 mg/kg oral at 0, 7, 24 h",79 ± 9%
same,ED50,"[3]; Rattus norvegicus, 27 h, sciatic nerves, diabetic rats, oral, read-out: ED50 (dose at which measured inhibition of aldose reductase activity is 50%)",1 mg/kg
same,"therapeutic index MED/ED50, sciatic nerves",[3]; sciatic nerves,above 3 000
same,Plasma glucose,[4]; 0.3 mg/kg oral,425 ± 82 mg/100 ml
same,Plasma glucose,[4]; 1 mg/kg oral,444 ± 76 mg/100 ml
same,Plasma glucose,[4]; 3 mg/kg oral,446 ± 70 mg/100 ml
same,Plasma glucose,[4]; 10 mg/kg oral,472 ± 55 mg/100 ml
same,"Accumulation of sorbitol in crystalline lenses, treated",[5]; 2 h,3 ± 0 µg
same,"Accumulation of sorbitol in crystalline lenses, treated","[5]; 4 h, p < 0.005",6.3 ± 0.6 µg
same,"Accumulation of sorbitol in crystalline lenses, treated","[5]; 8 h, p < 0.05",12.3 ± 4.0 µg
same,"Accumulation of sorbitol in crystalline lenses, treated","[5]; 24 h, p < 0.05",52 ± 10.1 µg
same,"Accumulation of sorbitol in crystalline lenses, treated",[5]; 48 h,92.7 ± 18.6 µg
same,duration of effect on sorbitol accumulation,[5]; [9],at least 48 hours
same,onset of effect on sorbitol accumulation,[5]; [9],observed as soon as soribol began to accumulate
same,"Accumulation of sorbitol in crystalline lenses, treated",[6]; 2 h after administration,103 ± 27 µg
same,"Accumulation of sorbitol in crystalline lenses, treated",[6]; 4 h after administration,99 ± 5 µg
same,"Accumulation of sorbitol in crystalline lenses, treated",[6]; 8 h after administration,125 ± 8 µg
same,"Accumulation of sorbitol in crystalline lenses, treated","[6]; 24 h after administration, p <0.0005",73 ± 18 µg
same,"Accumulation of sorbitol in crystalline lenses, treated","[6]; 48 h after administration, p < 0.05",142 ± 47 µg
same,accumulation of sorbitol in crystalline lenses (in words),[6]; single dose 10 mg/kg,completely inhibits
same,duration of effect,[6]; [9],≥ 48 h
same,"Accumulation of sorbitol in sciatic nerves, treated",[7]; 2 h after administration,4.8 ± 2.0 µg
same,"Accumulation of sorbitol in sciatic nerves, treated","[7]; 4 h after administration, n = 1",4.0 µg
same,"Accumulation of sorbitol in sciatic nerves, treated","[7]; 8 h after administration, n = 1",2.2 µg
same,"Accumulation of sorbitol in sciatic nerves, treated",[7]; 24 h after administration,2.5 ± 0.4 µg
same,"Accumulation of sorbitol in sciatic nerves, treated",[7]; 48 h after administration,5.9 ± 1.8 µg
same,proportion of sorbitol in sciatic nerves (in words),[7]; single dose 10 mg/kg,greatly reduces
same,"Plasma glucose, treated",[8]; 2 h,406 ± 28 mg/100 ml
same,"Plasma glucose, treated",[8]; 4 h,459 ± 73 mg/100 ml
same,"Plasma glucose, treated",[8]; 8 h,575 ± 14 mg/100 ml
same,"Plasma glucose, treated",[8]; 24 h,478 ± 83 mg/100 ml
same,"Plasma glucose, treated",[8]; 48 h,456 ± 117 mg/100 ml
same,effect on the proportion of plasma glucose,[8]; single dose 10 mg/kg,no effect
